What was measured:
Assay in all cases: NCI-60 SRB screening (one-dose and five-dose)
Assay type in all cases: cell-based, human
Details in all cases: 48 h
HT29 = system: HT29
Method in brief: (§1)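 After a 48-h incubation with compound, cellular protein was stained with SRB and growth estimated by spectrophotometry relative to untreated controls.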

SN12C = system: SN12C
Method in brief: (§2)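 Test agents were applied at one concentration; 48 h later, sulforhodamine B staining quantified growth as a percentage of controls receiving no agent.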

OVCAR-4 = system: OVCAR-4
Method in brief: as §1

SK-OV-3 = system: SK-OV-3
Method in brief: as §1

T-47D = system: T-47D
Method in brief: as §1

U251 = system: U251
Method in brief: as §2

IGROV1 = system: IGROV1
Method in brief: as §1

UACC-62 = system: UACC-62
Method in brief: as §1

SK-MEL-5 = system: SK-MEL-5
Method in brief: as §1

SW-620 = system: SW-620
Method in brief: as §1

A549/ATCC = system: A549/ATCC
Method in brief: as §1

OVCAR-8 = system: OVCAR-8
Method in brief: as §1

SF-295 = system: SF-295
Method in brief: as §1

SR = system: SR
Method in brief: as §2

MCF7 = system: MCF7
Method in brief: as §1

HCT-116 = system: HCT-116
Method in brief: as §1

786-0 = system: 786-0
Method in brief: as §1

MOLT-4 = system: MOLT-4
Method in brief: as §2

RPMI-8226 = system: RPMI-8226
Method in brief: as §1

HL-60(TB) = system: HL-60(TB)
Method in brief: as §2

ACHN = system: ACHN
Method in brief: as §1

PC-3 = system: PC-3
Method in brief: as §1

RXF 393 = system: RXF 393
Method in brief: as §2

SK-MEL-28 = system: SK-MEL-28
Method in brief: as §1

MALME-3M = system: MALME-3M
Method in brief: as §1

K-562 = system: K-562
Method in brief: as §2

MDA-MB-468 = system: MDA-MB-468
Method in brief: as §1

EKVX = system: EKVX
Method in brief: as §1

HCT-15 = system: HCT-15
Method in brief: as §1

DU-145 = system: DU-145
Method in brief: as §1

HOP-62 = system: HOP-62
Method in brief: as §1

COLO 205 = system: COLO 205
Method in brief: as §1

SF-539 = system: SF-539
Method in brief: as §1

A498 = system: A498
Method in brief: as §2

HCC-2998 = system: HCC-2998
Method in brief: as §1

SF-268 = system: SF-268
Method in brief: as §2

SNB-19 = system: SNB-19
Method in brief: as §1

UACC-257 = system: UACC-257
Method in brief: as §1

MDA-MB-435 = system: MDA-MB-435
Method in brief: as §1

HOP-92 = system: HOP-92
Method in brief: as §1

[1] = Homo sapiens, five dose 0.01–100 μM

COC(=O)[C@]12CC[C@@H](C(C)=O)[C@@H]1[C@H]1CC[C@@H]3[C@@]4(C)C/C(=C\c5cccnc5)C(=O)C(C)(C)[C@@H]4CC[C@@]3(C)[C@]1(C)CC2 [Compound 8, Methyl 3,20-dioxo-2-(3-pyridinylidene)-29-nor-lup-28-oate]
Growth Percent (HT29; HT29, 10 μM): 16.53% | Growth Percent (SN12C; 10 μM): 57.75% | Growth Percent (OVCAR-4; OVCAR-4, 10 μM): 26.68% | Growth Percent (SK-OV-3; SK-OV-3, 10 μM): 93.73% | Growth Percent (T-47D; T-47D, 10 μM): 24.42% | Growth Percent (U251; U251, 10 μM): 56.61% | Growth Percent (IGROV1; IGROV1, 10 μM): 85.80% | Growth Percent (UACC-62; UACC-62, 10 μM): 34.54% | Growth Percent (SK-MEL-5; SK-MEL-5, 10 μM): 39.76% | Growth Percent (SW-620; SW-620, 10 μM): 25.33% | Growth Percent (A549/ATCC; 10 μM): 51.40% | Growth Percent (OVCAR-8; OVCAR-8, 10 μM): 38.71% | Growth Percent (SF-295; SF-295, 10 μM): 75.30% | Growth Percent (SR; 10 μM): 12.35% | Growth Percent (MCF7; MCF7, 10 μM): 19.18% | Growth Percent (HCT-116; HCT-116, 10 μM): 3.92% | Growth Percent (786-0; 786-0, 10 μM): 84.87% | Growth Percent (MOLT-4; MOLT-4, 10 μM): 5.47% | Growth Percent (RPMI-8226; RPMI-8226, 10 μM): 2.88% | Growth Percent (HL-60(TB); 10 μM): −2.67% | Growth Percent (ACHN; 10 μM): 32.49% | Growth Percent (PC-3; PC-3, 10 μM): 24.42% | Growth Percent (RXF 393; RXF 393, 10 μM): 30.89% | Growth Percent (SK-MEL-28; SK-MEL-28, 10 μM): 31.54% | Growth Percent (MALME-3M; 10 μM): 29.95% | Growth Percent (K-562; K-562, 10 μM): 18.29% | Growth Percent (MDA-MB-468; MDA-MB-468, 10 μM): 55.75% | Growth Percent (EKVX; 10 μM): 85.77% | Growth Percent (HCT-15; HCT-15, 10 μM): 23.22% | Growth Percent (DU-145; DU-145, 10 μM): 68.80% | Growth Percent (HOP-62; HOP-62, 10 μM): 102.96% | Growth Percent (COLO 205; COLO 205, 10 μM): 82.53% | Growth Percent (SF-539; SF-539, 10 μM): 81.03% | Growth Percent (A498; A498, 10 μM): 80.56% | Growth Percent (HCC-2998; HCC-2998, 10 μM): 75.76% | Growth Percent (SF-268; SF-268, 10 μM): 68.63% | Growth Percent (SNB-19; SNB-19, 10 μM): 67.72% | Growth Percent (UACC-257; UACC-257, 10 μM): 58.14% | Growth Percent (MDA-MB-435; MDA-MB-435, 10 μM): 72.63% | Growth Percent (HOP-92; HOP-92, 10 μM): 66.73%

COc1cccc2c1C(=O)c1c(O)c3c(c(O)c1C2=O)C[C@@](O)(C(=O)CO)C[C@@H]3O[C@H]1C[C@H](N)[C@H](O)[C@H](C)O1 [Doxorubicin, reference compound]
GI50 (HT29; Homo sapiens, HT-29, HT29, five dose 0.01–100 μM): 120 nM | GI50 (SN12C; [1]): 70 nM | GI50 (OVCAR-4; Homo sapiens, OVCAR-4, five dose 0.01–100 μM): 370 nM | GI50 (SK-OV-3; Homo sapiens, SK-OV-3, five dose 0.01–100 μM): 220 nM | GI50 (T-47D; Homo sapiens, T47D, T -47D, five dose 0.01–100 μM): 60 nM | GI50 (U251; Homo sapiens, U-251, U251, five dose 0.01–100 μM): 40 nM | GI50 (IGROV1; Homo sapiens, IGROV-1, IGROV1, five dose 0.01–100 μM): 170 nM | GI50 (UACC-62; Homo sapiens, UACC-62, five dose 0.01–100 μM): 120 nM | GI50 (SK-MEL-5; Homo sapiens, SK-MEL-5, five dose 0.01–100 μM): 80 nM | GI50 (SW-620; Homo sapiens, SW-620, five dose 0.01–100 μM): 90 nM | GI50 (A549/ATCC; [1]): 60 nM | GI50 (OVCAR-8; Homo sapiens, OVCAR-8, five dose 0.01–100 μM): 100 nM | GI50 (SF-295; Homo sapiens, SF-295, five dose 0.01–100 μM): 100 nM | GI50 (SR; [1]): 30 nM | GI50 (MCF7; Homo sapiens, MCF7, five dose 0.01–100 μM): 30 nM | GI50 (HCT-116; Homo sapiens, HCT-116, five dose 0.01–100 μM): 80 nM | GI50 (786-0; Homo sapiens, 786-0, five dose 0.01–100 μM): 130 nM | GI50 (MOLT-4; Homo sapiens, MOLT-4, five dose 0.01–100 μM): 30 nM | GI50 (RPMI-8226; Homo sapiens, RPMI-8226, five dose 0.01–100 μM): 80 nM | GI50 (HL-60(TB); [1]): 120 nM | GI50 (ACHN; [1]): 80 nM | GI50 (PC-3; Homo sapiens, PC-3, five dose 0.01–100 μM): 320 nM | GI50 (RXF 393; Homo sapiens, RXF 393, five dose 0.01–100 μM): 100 nM | GI50 (SK-MEL-28; Homo sapiens, SK-MEL-28, five dose 0.01–100 μM): 210 nM | GI50 (MALME-3M; [1]): 120 nM | GI50 (K-562; Homo sapiens, K562, K-562, five dose 0.01–100 μM): 190 nM | GI50 (MDA-MB-468; Homo sapiens, MDA-MB-468, five dose 0.01–100 μM): 50 nM | GI50 (EKVX; [1]): 410 nM | GI50 (HCT-15; Homo sapiens, HCT-15, five dose 0.01–100 μM): 6460 nM | GI50 (DU-145; Homo sapiens, DU-145, five dose 0.01–100 μM): 110 nM | GI50 (HOP-62; Homo sapiens, HOP-62, five dose 0.01–100 μM): 70 nM | GI50 (COLO 205; Homo sapiens, COLO 205, five dose 0.01–100 μM): 180 nM | GI50 (SF-539; Homo sapiens, SF-539, five dose 0.01–100 μM): 120 nM | GI50 (A498; Homo sapiens, A498, five dose 0.01–100 μM): 100 nM | GI50 (HCC-2998; Homo sapiens, HCC-2998, five dose 0.01–100 μM): 260 nM | GI50 (SF-268; Homo sapiens, SF-268, five dose 0.01–100 μM): 100 nM | GI50 (SNB-19; Homo sapiens, SNB-19, five dose 0.01–100 μM): 40 nM | GI50 (UACC-257; Homo sapiens, UACC-257, five dose 0.01–100 μM): 140 nM | GI50 (MDA-MB-435; Homo sapiens, MDA-MB-435, MDA-B-435, five dose 0.01–100 μM): 250 nM | GI50 (HOP-92; Homo sapiens, HOP-92, five dose 0.01–100 μM): 100 nM
